The data set is described as follows: gradient 5% acetonitrile 3 min, to 50% in 2 min, to 85% in 15 min, held 3 min, 100 µL/min. The conditions noted are these: column: Zorbax Extend-C18 2.1 x 50 mm; eluents: water / acetonitrile, 0.1% formic acid. The method, boiled down: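 In both positive and negative ionization mode, a quadrupole time-of-flight mass spectrometer coupled to HPLC analyzed pure standards run in mixtures of ~100 molecules. The Zorbax Extend-C18 column (2.1 × 50 mm, 1.8 μm) was operated at 100 μL/min with water and acetonitrile, each containing 0.1% formic acid. The dead volume was 40 μL and the dwell volume 900 μL. Retention time came from adduct peaks that were computationally picked and individually inspected by hand.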
In the case of `CC1CCN(S(=O)(=O)c2ccc3nc(N4CCN(c5ccccn5)CC4)ccc3c2)CC1`, the RP-LC retention time amounted to 691 s. The result for `CNC(=O)CCc1nc2ccccc2n(CC(=O)NC(C)CCc2ccccc2)c1=O` (stereo not given) reads 728 s.

Compound `O=C(c1cccnc1)N1CCC(n2c(-c3ccsc3)nc3cccnc32)C1` (stereo not given) yielded an RP-LC retention time of 576 s.

Compound `O=C(Cc1ccsc1)N1CCOc2ccc(N3CCOCC3)cc2C1` had an RP-LC retention time of 743 s. The result for `CCn1nnc2ccc(-c3noc(-c4cccc(OC)c4)n3)cc21` reads 1060 s; that for `O=C(CSc1nnc2c3cc(-c4ccc(F)cc4)nn3ccn12)NCc1ccco1`, 787 s. The result for `CCc1cc(=O)n(CC(=O)N2CCCc3ccccc32)c(-n2nc(C)cc2C)n1` reads 993 s; that for `Cc1ccc(Nc2c(-c3ccc(C)cc3)nc3ccc(Br)cn23)cc1`, 849 s; that for `O=C(NCCc1c[nH]c2ccccc12)C1CCN(c2ncnc3c2oc2ccccc23)CC1`, 722 s. The result for `CCNC(=O)N1CC(c2nc(-c3cccnc3)no2)C2(CCOCC2)C1` (stereo not given) reads 597 s; that for `Cc1cc(S(=O)(=O)N2CC(Cc3nncn3C3CCCC3)C2)ccc1Cl`, 785 s. As for `CCc1nc(OCC(=O)NCc2ccc3c(c2)OCO3)c2ccccc2n1`, the RP-LC retention time worked out at 902 s.

`O=C1CCN(C(=O)C2CCN(C(=O)CN3CCCC3=O)CC2)CCCCCCN1` yielded an RP-LC retention time of 572 s.

On to `CCCN(CC1CCOC1)S(=O)(=O)Cc1ccccc1Cl` (stereo not given), for which the RP-LC retention time amounted to 930 s. Regarding `COc1ccc(N2CCN(c3cc(SCC(=O)Nc4ccc(OC)cc4OC)ncn3)CC2)cc1`, the RP-LC retention time is 962 s. To `CC(=O)c1ccc(Nc2c(C(=O)N3CCCC3)cnc3nc(C)ccc23)cc1` belongs 584 s. The compound `CNC(=O)Nc1ccc(C2(C(=O)N3CCN(c4ccccc4)CC3)CCC2)cc1` showed an RP-LC retention time of 754 s. The result for `COc1cccc(-c2noc(CCn3nc(-c4cccc(Cl)c4)ccc3=O)n2)c1OC` reads 947 s. To `CSc1ccc(NC(=O)Nc2c(-c3ccncc3)nc3ccccn23)cc1` belongs 618 s. To `CC(C)NC(=O)c1ccc(Cn2cncn2)cc1` belongs 597 s; to `COc1ccc(N2CC(c3nc(-c4ccc(OC)c(OC)c4)no3)CC2=O)cc1Cl` (stereo not given), 884 s; to `COC[C@@H]1OCCN(S(=O)(=O)c2cccc(OC)c2)[C@H]1c1ccccc1`, 927 s.

Regarding `Cc1nn(C)c(C)c1CCCN(C)C(=O)COc1ccc(NC(=O)C2CC2)cn1`, the RP-LC retention time was determined as 605 s. To `CCc1nn(C(C)C(=O)NCCc2c[nH]c3ccccc23)c(=O)c2cc3occc3n12` (stereo not given) belongs 851 s; to `NC(=O)CCSc1nnc(SCC(=O)c2ccccc2)s1`, 675 s; to `O=C(NC1CCCCC1)C1CCCN(c2ccncc2)C1` (stereo not given), 604 s. The result for `CCN(Cc1ccccc1)C(=O)Cn1c(N)nc(C)cc1=O` reads 596 s. To `COc1ccc(-c2csc3c(=O)n(CC(=O)NC4CCCC4)cnc23)cc1` belongs 832 s; to `CCOc1ccc(-c2cc3n(n2)CCCN(C(=O)c2cc(C)n(C)n2)C3)cc1`, 698 s. The compound `Cc1nc(CC(=O)Nc2ccc(F)cc2F)cs1` had an RP-LC retention time of 739 s.

`CCCNC(=O)C1CCN(c2ccc(SCC(=O)Nc3ccc(C(=O)OCC)cc3)nn2)CC1` showed an RP-LC retention time of 677 s. To `COc1ccc(OC)c(NC(=O)N2CCc3cn(CC(C)C)c4cccc(c34)C2)c1` belongs 1160 s. The result for `O=C(CC1CCCC1)NCc1cccnc1-c1ccc(F)cc1` reads 674 s. As for `Cc1cccc(N2CCN(c3cc(C(=O)O)c4cc(NC(=O)C5CCCC5)ccc4n3)CC2)c1C`, the RP-LC retention time turned out to be 799 s. With `CC(C(=O)NCCN1CCCC1)n1c2ccccc2c2cnn(C)c(=O)c21` (stereo not given), the RP-LC retention time amounted to 607 s.

`CCc1nc2cc(-c3noc(-c4ccc(OC)cc4OC)n3)ccc2o1` had an RP-LC retention time of 1080 s. The result for `Cc1nc(C)c(C(=O)NCC2Cn3cccc3C(=O)N2CC(C)C)s1` (stereo not given) reads 671 s.

In the case of `O=S(=O)(c1ccc(F)cc1)N1CC(F)(F)C[C@H]1CN1CCc2ccccc2C1`, the RP-LC retention time came to 738 s. `CCC1(O)CCC12CCN(C(=O)C1CCCC1)CC2` (stereo not given) came in with an RP-LC retention time of 773 s.

In turn, `COc1ccc(Cl)cc1NC(=O)Cn1c(C)nc2c(sc3nc(-c4ccccc4)ccc32)c1=O` had an RP-LC retention time of 1180 s. To `CCOc1cccc(-c2noc(Cn3ccn(-c4ccccc4C)c(=O)c3=O)n2)c1` belongs 911 s; to `CC(C)c1ccc2oc3nc(N)c(C(=O)O)cc3c(=O)c2c1`, 891 s; to `O=S(=O)(c1c(F)cccc1F)N1CCC2(CC1)OCCS2`, 860 s. To `COC1CN(c2cccc(F)c2)C12CCN(Cc1ccc(F)c(F)c1)CC2` (stereo not given) belongs 785 s; to `COc1ccc(C(=O)N(CCS(=O)(=O)N2CCNCC2)CC2CCCO2)cc1` (stereo not given), 609 s. The result for `CCOC(=O)C1=C(C)NC2=C(C(=O)CC(C)(C)C2)C1c1ccc([N+](=O)[O-])cc1` (stereo not given) reads 832 s. `Cc1nc(-c2ccccc2)cc2nn(CC(=O)N3CCc4ccccc43)c(=O)n12` gave an RP-LC retention time of 966 s. The result for `Cc1ccc(N(CN2CCCC2=O)C(=O)c2ccc(C)c(C)c2)cc1` reads 783 s; that for `CC1CCCN(c2nn(CC(=O)Nc3ccc4c(c3)OCCO4)c(=O)c3ccccc23)C1` (stereo not given), 1030 s; that for `CC(C)CC(=O)N1CCCCCCNC(=O)[C@@H]2CCCC[C@@H]21`, 833 s. The result for `CCc1noc(C2(NC(=O)/C=C/c3ccccc3)CCCCC2)n1` reads 961 s; that for `O=S(=O)(c1cccc2nsnc12)N1CC[C@@H]2COCCN(Cc3cccnc3)[C@@H]2C1`, 615 s.

In turn, `Cc1ccc(Nc2c(-c3ccc(O)cc3)nc3ccccn23)cc1` yielded an RP-LC retention time of 656 s. Consider `O=C(NCc1cc(F)cc(F)c1)c1ccc2c(c1)nc1n2CCN(C2CCCCC2)C1=O`, for which the RP-LC retention time stood at 830 s. The compound `Cc1nc(C)c(C(=O)NCC23CCCC=C2NC(=O)CC3)s1` (stereo not given) had an RP-LC retention time of 633 s.

`Cn1ncc2c3ccccc3n(CCCC(=O)NCCc3ccco3)c2c1=O` displayed an RP-LC retention time of 775 s.

For the compound `Cc1ccc(Nc2c(-c3ccc(N4CCOCC4)cc3)nc3ccccn23)cc1`, the RP-LC retention time came to 682 s. To `CCC(C)NC(=O)Cn1c(=O)n(CC(C)C)c(=O)c2nscc21` (stereo not given) belongs 735 s; to `O=C(NCc1ccccc1)Nc1c(-c2ccccc2)nc2ccccn12`, 626 s; to `Nc1nc(SCc2ccccc2Cl)c2[nH]cnc2n1`, 680 s.

For the origin of these results see the METLIN SMRT retention time set (Domingo-Almenara et al. 2019).
